Experimental data from publication PMC12655682, “Screening-Identified Oxazole-4-Carboxamide KB-2777 Exhibits In Vitro Anti-Coronavirus Activity” (Pharmaceutics, 2025).
Where two headings read alike, the source gives them in different places.

How the values were obtained:
[1] = tested on: HCoV-NL63; experiment: Primary antiviral screening (virus inhibition) in HCoV-NL63-infected LLC-MK2 cells; assay type: cell-based, Human coronavirus NL63; conditions: for SI (=CC50/EC50): HCoV-NL63/LLC-MK2; for antiviral effect: HCoV-NL63/LLC-MK2, up to 25 µM
Protocol: For antiviral activity, cells in 96-well plates were infected and treated with test compounds as indicated and incubated for 48–72 h. Cell viability was quantified by WST (EZ-Cytox) at 450 nm on the same reader. Cytoprotective effect was calculated by normalizing to infected DMSO controls and converting to percent protection: % Protection = ((V_drug + virus − V_virus-only)/(V_mock − V_virus-only)) × 100.
We screened 11 oxazole-4-carboxamide derivatives (Figure 1) against HCoV-NL63 in LLC-MK2 cells and quantified antiviral activity and cytotoxicity (Figure 2). Several derivatives inhibited NL63 with distinct selectivity profiles. […] Visible crystals or precipitates formed at ≥50 µM without loss of viability or morphological change; therefore, downstream assays were performed at ≤25 µM.

[2] = Cytotoxicity (EZ-Cytox WST) in LLC-MK2 cells; assay type: cell-based; conditions: rhesus monkey, 72 h exposure
Protocol: Cells were seeded at 2 × 10^4 cells per well in 96-well plates and, after overnight attachment, exposed to test compounds for 72 h in maintenance medium. The final DMSO concentration was ≤0.1% (v/v) for all conditions, including vehicle controls. Cell viability was quantified using EZ-Cytox WST reagent (DoGenBio, Seoul, Republic of Korea) according to the manufacturer’s instructions; absorbance was read at 450 nm on a SpectraMax i3x microplate reader (Molecular Devices, San Jose, CA, USA). Viability for each well was normalized to the mean of vehicle-treated (mock) controls on the same plate and expressed as percent viability. Each condition included technical replicates (n = 3) per experiment. Concentration–response data from ≥3 independent experiments were fit to a four-parameter logistic (4PL) model in GraphPad Prism 10.1.2 (GraphPad Software, San Diego, CA, USA) (log10-transformed concentrations; bottom and top unconstrained).

[3] = tested on: HCoV-NL63; experiment: Combination (concentration matrix, ZIP synergy) HCoV-NL63/LLC-MK2; assay type: cell-based, Human coronavirus NL63; conditions: HCoV-NL63/LLC-MK2, alone
Protocol: Concentration matrices were generated within the non-cytotoxic range for KB-2777 + nirmatrelvir (HCoV-NL63/LLC-MK2) and KB-2777 + GS-441524 (HCoV-OC43/Vero E6). Antiviral activity was measured at 48 h post-infection. Interaction surfaces and ZIP synergy scores were computed using SynergyFinder (v3) with default normalization (virus + DMSO control = 0% inhibition). Heatmaps and δ-surfaces were exported directly from SynergyFinder.

[4] = Human coronavirus NL63, LLC-MK2, HCoV-NL63/LLC-MK2, primary screen, read-out: EC50
[5] = HCoV-NL63/LLC-MK2, primary screen, read-out: EC50
[6] = Human coronavirus NL63, LLC-MK2, HCoV-NL63/LLC-MK2, primary screen

Row | SMILES | SI (=CC50/EC50) [1] | EC50 [1, 4] [µM] | CC50 at 72 h [2] [µM] | EC50 [1, 5] [µM] | EC50 [1, 6] [µM] | antiviral effect [1] | antiviral activity of the single agent in the combination assay [3]
1 | COC(=O)[C@H](C)NC(=O)c1nc(-c2ccc(C(F)(F)F)cc2)oc1-c1ccc(SC)cc1 [KB-2738] | 2.84 | 7.7 | 21.8 | – | – | – | –
2 | COC(=O)[C@H](C)NC(=O)c1nc(-c2ccc(C(F)(F)F)cc2)oc1-c1cccc(SC)c1 [KB-2742] | <5.40 | 4.63 | < 25 | – | – | – | –
3 | COC(=O)[C@H](C)NC(=O)c1nc(-c2ccc(C(F)(F)F)cc2)oc1-c1cccc(OC)c1 [KB-2767] | 3.33 | 9.26 | 30.8 | – | – | – | –
4 | COC(=O)[C@H](CC(C)C)NC(=O)c1nc(-c2ccc(C(F)(F)F)cc2)oc1-c1cccc(SC)c1 [KB-2768] | 5.12 | 6.66 | 34.1 | – | – | – | –
5 | CSc1cccc(-c2oc(-c3ccc(C(F)(F)F)cc3)nc2C(=O)N[C@@H](C)C(N)=O)c1 [KB-2769] | <2.67 | 2.34 | < 6.25 | – | – | – | –
6 | CSc1cccc(-c2oc(-c3ccc(C(F)(F)F)cc3)nc2C(=O)N[C@@H](CC(C)C)C(N)=O)c1 [KB-2771] | – | – | < 25 | 4.27 | 4 to 5 | – | –
7 | COC(=O)C(CC1CCNC1=O)NC(=O)c1nc(-c2ccc(C(F)(F)F)cc2)oc1-c1cccc(SC)c1 (stereo not shown) [KB-2772] | – | – | > 50 | – | – | no detectable antiviral effect | –
8 | COC(=O)C(CC1CCNC1=O)NC(=O)c1nc(-c2ccc(C(F)(F)F)cc2)oc1-c1cccc(OC)c1 (stereo not shown) [KB-2773] | – | – | < 25 | – | – | no detectable antiviral effect | –
9 | COC(=O)[C@H](CC(C)C)NC(=O)c1nc(-c2ccc(C(F)(F)F)cc2)oc1-c1cccc(OC)c1 [KB-2774] | – | – | 25.2 | 4.39 | 4 to 5 | – | –
10 | COc1cccc(-c2oc(-c3ccc(C(F)(F)F)cc3)nc2C(=O)N[C@@H](C)C(N)=O)c1 [KB-2775] | – | – | 3.12 | – | – | no detectable antiviral effect | –
11 | CC(C)(C)[C@H](NC(=O)C(F)(F)F)C(=O)N1C[C@H]2[C@@H]([C@H]1C(=O)N[C@H](C#N)C[C@@H]1CCNC1=O)C2(C)C [nirmatrelvir] | – | – | – | – | – | – | limited activity
